Key:
[1] = test system: 3×Tg-AD mice; test: Short-term memory in single alternation T-maze, 3×Tg-AD mice; type: in vivo; conditions: 10 mg/kg in saline 1 hr prior to testing, vs saline controls, p<0.001
Method: In this model, genes that cause Alzheimer's disease have been cloned from living Alzheimer's patients and then directly cloned into the genome of living mice to create Alzheimer mice (3×Tg-AD mice). […] (Oddo, S., et al., Triple-transgenic model of Alzheimer's disease with plaques and tangles: intracellular Abeta and synaptic dysfunction. Neuron, 2003; 39(3):409-21.)
Short-term memory was assessed in a well-accepted memory model (single alternation T-maze). In these studies, animals were administered 10 mg/kg PD2005 in saline 1 hr prior to testing and controls were administered only saline.

[2] = test system: patients with dementia; conditions: Alzheimer's disease, frontotemporal dementia, vascular dementia; Dolder et al. review; cited from earlier work
[3] = target: dopamine transporter (Homo sapiens, UniProt Q01959); conditions: result in words; cited from earlier work
Sequence of dopamine transporter (Q01959 whole entry): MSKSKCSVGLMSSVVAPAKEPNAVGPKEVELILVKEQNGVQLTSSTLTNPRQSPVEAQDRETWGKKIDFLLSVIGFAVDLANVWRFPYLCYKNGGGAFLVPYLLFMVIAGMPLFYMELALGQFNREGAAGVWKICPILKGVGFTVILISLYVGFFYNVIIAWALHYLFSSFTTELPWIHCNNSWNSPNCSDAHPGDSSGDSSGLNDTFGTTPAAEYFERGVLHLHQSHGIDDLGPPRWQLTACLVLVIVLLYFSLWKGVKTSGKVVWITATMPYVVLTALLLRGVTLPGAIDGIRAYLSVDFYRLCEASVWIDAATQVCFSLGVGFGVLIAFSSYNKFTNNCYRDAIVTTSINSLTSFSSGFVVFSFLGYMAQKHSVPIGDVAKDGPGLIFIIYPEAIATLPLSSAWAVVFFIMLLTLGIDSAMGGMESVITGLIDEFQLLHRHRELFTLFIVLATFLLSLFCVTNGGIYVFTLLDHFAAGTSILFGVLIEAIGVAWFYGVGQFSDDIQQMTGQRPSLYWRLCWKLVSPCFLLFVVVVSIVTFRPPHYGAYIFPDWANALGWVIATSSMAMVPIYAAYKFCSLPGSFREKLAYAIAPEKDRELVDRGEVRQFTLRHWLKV

## C=CCN1C2CCC1CC(OC(c1ccc(F)cc1)c1ccc(F)cc1)C2 (stereo not drawn) [PD2005, N-allyl-4′,4″-difluoro-3α-diphenyl-methoxytropane]
[1]; first day of testing
  improvement in memory: 140%
[1]; following day of testing
  memory improvement: 113%

## CC(N)Cc1ccccc1 (centres unmarked) [amphetamine]
[2]
  effectiveness in patients with dementia: not effective

## CN1[C@@H]2CC[C@H]1C[C@@H](OC(c1ccccc1)c1ccccc1)C2 [benztropine]
[3]
  affinity for the dopamine transporter: high affinity

## COC(=O)C(c1ccccc1)C1CCCCN1 (centres unmarked) [methylphenidate]
[2]
  effectiveness in patients with dementia: not effective
